The record followed here is patent US4707481A, “Pyridazinones, their preparation and use, and bronchospasmolytic medicaments containing pyridazinones” (BYK Gulden Lomberg Chemische Fabrik GmbH, priority 1983, dated 1987).

Assay [1] deals with acetylcholine-induced bronchospasm. The assay can be described thus: protective effect against acetylcholine-induced bronchospasm in conscious guinea pigs. It counts as in vivo, guinea pig. The conditions noted are these: for Doubling of the latency period / Tripling of the latency period: 100 μmol/kg p.o., 30 min; for Tripling of the latency period: figure in parentheses; for protective effect compared with theophylline: result in words. As for the experimental part: The figure in parentheses indicates the number out of 10 animals in which the latency period more than tripled.
The latency period is to be understood to be the time from the start of acetylcholine-atomization until clear signs of asthma appeared.
The time from the start of atomization to the onset of clear respiratory exertion (in certain circumstances, hypoxic convulsion in the lateral position) is measured, and is denoted the latency period.
The test substance is administered orally by gavage (standard dose 100 μmol/kg, volume 1 ml of 4% strength methocel suspension in 0.9% strength sodium chloride solution/kg). […] Prolongation of the latency period to at least twice its length is regarded as a protective effect.

For assay [2], the system named is chain of tracheal rings of guinea pigs. The assay can be described thus: relaxing action on chain of tracheal rings in vitro (bronchospasmolytic action). More on the design: species or system guinea pig. The conditions noted are these: for EC50: Cavia porcellus, Column A, negative logarithm of EC50 in mol/l, 50% of maximum relaxation by (-)isoprenaline, read-out: -lg[EC50] trachea (converted); for [EC40 pot.] left atrium / [EC50] trachea: Column C, measure of organ-selective activity; for [EC50] theophylline / [EC50] substance: Column D, trachea.

Assay [3] deals with electrically stimulated left atrium of rats. Put plainly: positive inotropic action on electrically stimulated left atrium in vitro. More on the design: species or system rat. Particulars: for [EC40 pot.] theophylline / [EC40 pot.] substance: Column E, left atrium; for EC40: Rattus norvegicus, Column B, negative logarithm of EC40pot in mol/l, 40% increase in contraction force, read-out: -lg[EC40 pot.] left atrium (converted).
Description: The positive inotropic action was tested in vitro on the electrically stimulated left atrium of rats (l.a.).
The positive inotropic action of the compounds was tested in vitro on the electrically stimulated left atrium of rats.
Isometric contractions (HSE force sensor K-30; Watanabe recorder, Linear Corder Mark 5) of isolated, left atria from rats (.male., 250-300 g) in an organ bath (10 ml, Tyrode nutrient solution, 31° C., gassing with carbogen, initial tension of the organs 0.25 g) under electrical stimulation (HSE stimulator, 7 V, 3 ms, 2 Hz) were recorded. […] The particular increase in the contraction force is expressed in % of the starting value before administration of the substance. The concentration of the test substance which potentiates the contraction force of the atrium by 40% compared with the starting value [EC40pot. mol/l], expressed by the negative logarithm of the [EC40pot mol/l]: -lg[EC40pot ] serves as a measure of the cardiotonic activity.

In assay [4] the test system is histamine-induced bronchospasm. The assay can be described thus: inhibition of histamine-induced bronchospasm in anesthetized guinea pigs. Particulars: for inhibition of histamine-induced bronchospasm, TVi / inhibition of histamine-induced bronchospasm, Vmaxe / inhibition of histamine-induced bronchospasm, Vmaxi: 20 μmol/kg i.v.; for inhibition of histamine-induced bronchospasm compared with theophylline: result in words. It counts as in vivo, guinea pig. As for the experimental part: A method for simultaneously recording pharmacodynamic and toxic effects on internal sensitive receptors, on the respiration and the cardiovascular system of guinea pigs was used [U. Kilian, E. Muller, E. Ch. […] To characterize the bronchospasm induced by histamine (0.09-0.18 μmol /kg i.v.), the maximum flow rate of the respiratory air during inspiration (Vmaxi) and expiration (Vmaxe) and the breath volume (BVi) were measured. A histamine spasm before administration of the substance was compared with several histamine spasms after administration of the substance. The test substances were administered intravenously (i.v.) and/or intrajejunally (i.j.). 5 to 10 animals were used per measurement, and the arithmetic mean was calculated from the results.

On to `COc1cc(-c2ccc(=O)[nH]n2)ccc1OCC(C)C` [Serial No. 16, 6-(3-methoxy-4-isobutoxyphenyl)-3[2H]pyridazinone], for which, in assay [1], the “Doubling of the latency period” value is 8 N of 10 animals, the “Tripling of the latency period” value is on record as 5 N of 10 animals and the “protective effect compared with theophylline” value was “greater protective effect”. Moreover, in assay [2], the EC50 was 0.288 µM, the “[EC40 pot.] left atrium / [EC50] trachea” value turned out to be 5.8 and the “[EC50] theophylline / [EC50] substance” value turned out to be 468. In addition, in assay [3], the “[EC40 pot.] theophylline / [EC40 pot.] substance” value turned out to be 251 and the EC40 was 1.66 µM. For the same compound, in assay [4] (2 min), the “inhibition of histamine-induced bronchospasm, TVi” value (“inhibition … TVi” below) is 153%; the “inhibition of histamine-induced bronchospasm, Vmaxe” value (“inhibition … Vmaxe” below) was determined as 145%; the “inhibition of histamine-induced bronchospasm, Vmaxi” value (from here on “inhibition … Vmaxi”) was 154%. Further, in assay [4] (10 min), the “inhibition … TVi” value is 66%; the “inhibition … Vmaxe” value is 63%; the “inhibition … Vmaxi” value was determined as 73%. In addition, in assay [4] (20 min), the “inhibition … TVi” value amounted to 46%; the “inhibition … Vmaxe” value is 60%; the “inhibition … Vmaxi” value worked out at 48%. Further, in assay [4] (30 min), the “inhibition … TVi” value was 28%; the “inhibition … Vmaxe” value stood at 33%; the “inhibition … Vmaxi” value was found to be 34%. In addition, in assay [4] (60 min), the “inhibition … TVi” value is recorded as 13%; the “inhibition … Vmaxe” value is on record as 16%; the “inhibition … Vmaxi” value was 15%. Also, the “inhibition of histamine-induced bronchospasm compared with theophylline” value in assay [4] was “significantly more effective than theophylline”.
Turning to `COc1ccc(-c2ccc(=O)[nH]n2)cc1OCC(C)C` [Serial No. 15, 6-(4-methoxy-3-isobutoxyphenyl)-3[2H]pyridazinone], in assay [1], the “Doubling of the latency period” value is listed as 10 N of 10 animals, the “Tripling of the latency period” value was 10 N of 10 animals and the “protective effect compared with theophylline” value is “greater protective effect”. For the same compound, in assay [2], the EC50 is 0.724 µM, the “[EC40 pot.] left atrium / [EC50] trachea” value is given as 0.5 and the “[EC50] theophylline / [EC50] substance” value worked out at 186. Moreover, in assay [3], the “[EC40 pot.] theophylline / [EC40 pot.] substance” value was 1122 and the EC40 is 0.372 µM. In assay [4] (2 min), the “inhibition … TVi” value is 99%; the “inhibition … Vmaxe” value was determined as 108%; the “inhibition … Vmaxi” value worked out at 172%. In assay [4] (10 min), the “inhibition … TVi” value is given as 107%; the “inhibition … Vmaxe” value worked out at 123%; the “inhibition … Vmaxi” value was found to be 119%. In addition, in assay [4] (20 min), the “inhibition … TVi” value turned out to be 104%; the “inhibition … Vmaxe” value is listed as 103%; the “inhibition … Vmaxi” value is reported as 110%. In assay [4] (30 min), the “inhibition … TVi” value came out at 63%; the “inhibition … Vmaxe” value was 84%; the “inhibition … Vmaxi” value worked out at 82%. In assay [4] (60 min), the “inhibition … TVi” value was 33%; the “inhibition … Vmaxe” value is recorded as 46%; the “inhibition … Vmaxi” value was found to be 60%. Moreover, in assay [4], the “inhibition of histamine-induced bronchospasm compared with theophylline” value is listed as “significantly more effective than theophylline”.
Turning to `CCCOc1ccc(-c2ccc(=S)[nH]n2)cc1OC` [Serial No. 13, 6-(3-methoxy-4-n-propoxyphenyl)-3[2H]pyridazinethione], in assay [1], the “Doubling of the latency period” value is reported as 6 N of 10 animals, the “Tripling of the latency period” value is 6 N of 10 animals and the “protective effect compared with theophylline” value is given as “greater protective effect”. Moreover, in assay [2], the 50% effective concentration (EC50) is 3.09 µM, the “[EC40 pot.] left atrium / [EC50] trachea” value is given as 324 and the “[EC50] theophylline / [EC50] substance” value is 43.7. Besides, the EC40 in assay [3] is above 1000 µM.
